Test: Aqueous stability upon storage in aqueous solution, evaluated by HPLC
Format: physicochemical
Procedure: The compound of Formula (IIIa):
[drawing 31] was selected as an exemplary compound for evaluation of aqueous stability. In particular, the aqueous stability of the compound of Formula (Ma) upon storage in aqueous solution at several temperatures for several weeks was evaluated by HPLC using the following conditions: Column: BioWidePore C18 (SUPELCO), 4.6 mm×25 cm, 5 μm Mobile Phase A: 0.1% (V/V) trifluoroacetic acid (TFA) in di-water, 0.8 micron filtered Mobile Phase B: 100% acetonitrile, 0.8 micron filtered Column temp: Ambient Injection volume: 30 μL UV Detection: 214 nm Flow: 1.0 mL/min Run time: 25 minutes Sample diluent: 50% acetonitrile in di-water Gradient condition: See Table 1

CCCCC[C@H](O)c1ccc(N2C(=O)CC[C@@H]2CCCc2ccc(C(=O)OC[C@@H](O)CO)s2)cc1 [Formula (IIIa), (S)-2,3-dihydroxypropyl 5-(3-((S)-1-(4-((S)-1-hydroxyhexyl)phenyl)-5-oxopyrrolidin-2-yl)propyl)thiophene-2-carboxylate]
% Recovery vs. T0 (storage 25° C., T0): 100.0% | % Recovery vs. T0 (storage 25° C., Week-1): 100.8% | % Recovery vs. T0 (storage 25° C., Week-2): 100.4% | % Recovery vs. T0 (storage 25° C., Week-4): 102.6% | % Recovery vs. T0 (storage 40° C., T0): 100.0% | % Recovery vs. T0 (storage 40° C., Week-1): 100.6% | % Recovery vs. T0 (storage 40° C., Week-2): 99.8% | % Recovery vs. T0 (storage 40° C., Week-4): 101.8% | % Recovery vs. T0 (storage 60° C., T0): 100.0% | % Recovery vs. T0 (storage 60° C., Week-1): 99.0% | % Recovery vs. T0 (storage 60° C., Week-2): 97.4% | % Recovery vs. T0 (storage 60° C., Week-4): 96.3%

O=C(OC[C@@H](O)CO)c1ccc(CCC[C@@H]2[C@@H](CCc3cc(Cl)cc(Cl)c3)[C@H](O)C[C@H]2Cl)s1 [Standard]
% Recovery vs. T0 (storage 25° C., T0): 100.0% | % Recovery vs. T0 (storage 25° C., Week-1): 100.1% | % Recovery vs. T0 (storage 25° C., Week-2): 101.0% | % Recovery vs. T0 (storage 25° C., Week-4): 101.6% | % Recovery vs. T0 (storage 40° C., T0): 100.0% | % Recovery vs. T0 (storage 40° C., Week-1): 100.1% | % Recovery vs. T0 (storage 40° C., Week-2): 100.1% | % Recovery vs. T0 (storage 40° C., Week-4): 98.6% | % Recovery vs. T0 (storage 60° C., T0): 100.0% | % Recovery vs. T0 (storage 60° C., Week-1): 99.3% | % Recovery vs. T0 (storage 60° C., Week-2): 97.5% | % Recovery vs. T0 (storage 60° C., Week-4): 95.6%
